Source: ChEMBL document CHEMBL5550204, “Discovery of ZJCK-6-46: A Potent, Selective, and Orally Available Dual-Specificity Tyrosine Phosphorylation-Regulated Kinase 1A Inhibitor for the Treatment of Alzheimer's Disease” (J Med Chem, 2024)
Calls of active or inactive are those of the source. No cut-off for these calls is given here.

Tests used:
[1] = Metabolic stability in human liver microsomes assessed as half life at 1 uM incubated upto 45 mins in presence of NADPH by LC-MS/MS analysis; type: ADME, Microsome
[2] = Metabolic stability in human plasma assessed as half life at 2 uM incubated upto 60 mins […] by LC-MS/MS analysis; type: ADME, cell-free
[3] = Plasma protein binding in human assessed as bound fraction at 1 uM incubated for 5 hrs by LC-MS/MS analysis; type: ADME, cell-free; settings: read-out: PPB (converted)
[4] = Permeability of compound at pH 7.4 at 10 uM incubated for 16 hrs by PAMPA-BBB assay based LC-MS/MS analysis
CYP2E1 = CYP2E1 (Homo sapiens, UniProt P05181); experiment: Inhibition of CYP2E1 in human liver microsomes using chlorzoxazone as substrate at 10 uM preincubated for 10 mins followed by NADPH addition and measured after 40 mins by LC-MS/MS analysis relative to control; settings: probe chlorzoxazone
Chain of CYP2E1 (P05181 whole entry): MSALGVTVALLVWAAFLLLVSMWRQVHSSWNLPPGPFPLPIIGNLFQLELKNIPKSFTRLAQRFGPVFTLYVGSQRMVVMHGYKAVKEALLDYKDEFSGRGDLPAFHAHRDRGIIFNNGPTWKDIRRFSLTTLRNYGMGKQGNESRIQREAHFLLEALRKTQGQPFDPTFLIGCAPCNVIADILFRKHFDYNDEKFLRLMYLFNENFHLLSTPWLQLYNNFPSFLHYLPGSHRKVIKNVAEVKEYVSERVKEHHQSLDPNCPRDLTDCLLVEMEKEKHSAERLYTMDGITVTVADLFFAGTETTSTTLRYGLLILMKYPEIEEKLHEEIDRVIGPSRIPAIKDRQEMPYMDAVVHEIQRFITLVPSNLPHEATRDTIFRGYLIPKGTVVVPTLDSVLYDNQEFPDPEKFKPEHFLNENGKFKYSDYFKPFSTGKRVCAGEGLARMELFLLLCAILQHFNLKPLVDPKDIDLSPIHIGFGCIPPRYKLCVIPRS

CYP3A4 = CYP3A4 (Homo sapiens, UniProt P08684); experiment: Inhibition of CYP3A4 in human liver microsomes using midazolam as substrate at 10 uM preincubated for 10 mins followed by NADPH addition and measured after 40 mins by LC-MS/MS analysis relative to control; type: ADME, Microsome; settings: probe midazolam, time 50 min
Chain of CYP3A4 (P08684 whole entry): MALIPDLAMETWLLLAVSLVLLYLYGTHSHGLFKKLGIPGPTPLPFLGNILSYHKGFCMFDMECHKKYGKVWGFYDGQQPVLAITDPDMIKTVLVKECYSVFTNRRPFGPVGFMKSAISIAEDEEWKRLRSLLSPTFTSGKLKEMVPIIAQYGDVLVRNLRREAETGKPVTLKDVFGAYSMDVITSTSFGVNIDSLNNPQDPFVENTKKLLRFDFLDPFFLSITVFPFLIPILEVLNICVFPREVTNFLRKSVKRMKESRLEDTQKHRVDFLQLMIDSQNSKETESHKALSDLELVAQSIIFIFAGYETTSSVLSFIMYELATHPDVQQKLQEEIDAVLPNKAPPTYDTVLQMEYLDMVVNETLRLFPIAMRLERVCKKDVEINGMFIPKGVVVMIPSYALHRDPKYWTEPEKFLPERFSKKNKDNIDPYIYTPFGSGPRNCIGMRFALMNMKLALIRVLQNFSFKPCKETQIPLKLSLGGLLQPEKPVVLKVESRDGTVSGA

[5] = AUC (0 to t) in Sprague-Dawley rat at 2 mg/kg,iv measured upto 24 hrs by LC-MS/MS analysis; type: ADME, organism-based; settings: in vivo
[6] = AUC (0 to t) in Sprague-Dawley rat at 10 mg/kg,po measured upto 24 hrs by LC-MS/MS analysis; type: ADME, organism-based; settings: in vivo
[7] = MRT (0 to infinity) in Sprague-Dawley rat at 2 mg/kg,iv measured upto 24 hrs by LC-MS/MS analysis; type: ADME, organism-based; settings: in vivo
[8] = MRT (0 to infinity) in Sprague-Dawley rat at 10 mg/kg,po measured upto 24 hrs by LC-MS/MS analysis; type: ADME, organism-based; settings: in vivo
[9] = Half life in Sprague-Dawley rat at 2 mg/kg,iv measured upto 24 hrs by LC-MS/MS analysis; type: ADME, organism-based; settings: in vivo
[10] = Cmax in Sprague-Dawley rat at 10 mg/kg,po measured upto 24 hrs by LC-MS/MS analysis; type: ADME, organism-based; settings: in vivo
[11] = Apparent volume of distribution in Sprague-Dawley rat at 2 mg/kg,iv measured upto 24 hrs by LC-MS/MS analysis; type: ADME, organism-based; settings: in vivo, read-out: Vz
[12] = Oral bioavailability in Sprague-Dawley rat at 10 mg/kg measured upto 24 hrs by LC-MS/MS analysis; type: ADME, organism-based; settings: in vivo
[13] = target: Dual specificity tyrosine-phosphorylation-regulated kinase 1B (Homo sapiens, UniProt Q9Y463); experiment: Inhibition of DYRK1B (unknown origin) preincubated with enzyme for 10 mins followed by substrate and ATP addition measured after 60 mins by ADP-Glo reagent based assay
Chain of Dual specificity tyrosine-phosphorylation-regulated kinase 1B (Q9Y463 whole entry): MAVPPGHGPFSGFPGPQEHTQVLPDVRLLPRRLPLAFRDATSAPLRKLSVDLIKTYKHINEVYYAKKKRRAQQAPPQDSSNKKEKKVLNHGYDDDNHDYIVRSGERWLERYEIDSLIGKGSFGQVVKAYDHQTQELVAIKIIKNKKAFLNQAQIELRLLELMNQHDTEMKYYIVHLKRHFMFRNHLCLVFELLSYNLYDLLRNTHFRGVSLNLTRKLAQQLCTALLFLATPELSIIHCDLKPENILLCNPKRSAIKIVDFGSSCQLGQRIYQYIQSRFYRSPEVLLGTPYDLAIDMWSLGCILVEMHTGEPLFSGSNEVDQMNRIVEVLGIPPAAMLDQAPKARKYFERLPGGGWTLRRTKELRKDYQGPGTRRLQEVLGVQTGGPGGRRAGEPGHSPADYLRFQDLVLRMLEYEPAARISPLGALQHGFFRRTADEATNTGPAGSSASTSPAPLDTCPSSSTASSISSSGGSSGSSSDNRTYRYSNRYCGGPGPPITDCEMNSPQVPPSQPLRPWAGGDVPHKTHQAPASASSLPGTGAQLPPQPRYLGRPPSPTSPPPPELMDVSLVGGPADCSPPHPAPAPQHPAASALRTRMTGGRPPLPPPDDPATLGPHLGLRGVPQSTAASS

[14] = target: Dual specificity tyrosine-phosphorylation-regulated kinase 3 (Homo sapiens, UniProt O43781); experiment: Inhibition of DYRK3 (unknown origin) preincubated with enzyme for 10 mins followed by substrate and ATP addition measured after 60 mins by ADP-Glo reagent based assay
Chain of Dual specificity tyrosine-phosphorylation-regulated kinase 3 (O43781 whole entry): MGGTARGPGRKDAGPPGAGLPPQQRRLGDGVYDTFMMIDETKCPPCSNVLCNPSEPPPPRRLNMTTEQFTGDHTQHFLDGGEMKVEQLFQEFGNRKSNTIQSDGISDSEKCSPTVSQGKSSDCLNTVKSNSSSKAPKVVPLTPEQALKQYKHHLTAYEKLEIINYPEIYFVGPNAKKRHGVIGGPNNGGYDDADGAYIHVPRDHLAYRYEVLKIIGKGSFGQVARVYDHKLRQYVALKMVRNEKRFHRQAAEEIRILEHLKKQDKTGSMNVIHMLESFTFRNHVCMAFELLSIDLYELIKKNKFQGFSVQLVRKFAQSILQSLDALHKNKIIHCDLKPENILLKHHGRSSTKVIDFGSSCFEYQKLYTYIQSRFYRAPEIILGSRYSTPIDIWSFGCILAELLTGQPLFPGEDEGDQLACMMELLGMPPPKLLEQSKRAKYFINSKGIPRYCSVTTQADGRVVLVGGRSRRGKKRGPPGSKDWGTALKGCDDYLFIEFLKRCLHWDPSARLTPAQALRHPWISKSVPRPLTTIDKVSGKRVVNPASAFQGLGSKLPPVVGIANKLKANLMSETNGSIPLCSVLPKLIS

[15] = target: Dual specificity tyrosine-phosphorylation-regulated kinase 4 (Homo sapiens, UniProt Q9NR20); experiment: Inhibition of DYRK4 (unknown origin) preincubated with enzyme for 10 mins followed by substrate and ATP addition measured after 60 mins by ADP-Glo reagent based assay
Chain of Dual specificity tyrosine-phosphorylation-regulated kinase 4 (Q9NR20 whole entry): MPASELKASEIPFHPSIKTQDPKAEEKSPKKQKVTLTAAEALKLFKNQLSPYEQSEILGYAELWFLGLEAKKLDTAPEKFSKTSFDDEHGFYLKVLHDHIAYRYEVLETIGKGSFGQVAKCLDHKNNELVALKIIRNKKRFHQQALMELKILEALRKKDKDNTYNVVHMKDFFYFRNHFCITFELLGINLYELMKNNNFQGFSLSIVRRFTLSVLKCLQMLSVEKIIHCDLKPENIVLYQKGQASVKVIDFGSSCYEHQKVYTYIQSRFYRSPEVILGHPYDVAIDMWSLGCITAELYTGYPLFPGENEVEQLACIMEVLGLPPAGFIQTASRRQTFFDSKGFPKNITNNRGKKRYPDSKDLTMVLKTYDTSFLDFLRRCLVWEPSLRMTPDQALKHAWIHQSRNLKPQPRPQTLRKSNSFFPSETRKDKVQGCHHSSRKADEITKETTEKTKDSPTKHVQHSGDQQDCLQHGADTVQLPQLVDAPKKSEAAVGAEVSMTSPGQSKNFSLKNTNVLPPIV

[16] = target: Dual specificity protein kinase CLK3 (Homo sapiens, UniProt P49761); experiment: Inhibition of CLK3 (unknown origin) preincubated with enzyme for 10 mins followed by substrate and ATP addition measured after 60 mins by ADP-Glo reagent based assay
Chain of Dual specificity protein kinase CLK3 (P49761 whole entry): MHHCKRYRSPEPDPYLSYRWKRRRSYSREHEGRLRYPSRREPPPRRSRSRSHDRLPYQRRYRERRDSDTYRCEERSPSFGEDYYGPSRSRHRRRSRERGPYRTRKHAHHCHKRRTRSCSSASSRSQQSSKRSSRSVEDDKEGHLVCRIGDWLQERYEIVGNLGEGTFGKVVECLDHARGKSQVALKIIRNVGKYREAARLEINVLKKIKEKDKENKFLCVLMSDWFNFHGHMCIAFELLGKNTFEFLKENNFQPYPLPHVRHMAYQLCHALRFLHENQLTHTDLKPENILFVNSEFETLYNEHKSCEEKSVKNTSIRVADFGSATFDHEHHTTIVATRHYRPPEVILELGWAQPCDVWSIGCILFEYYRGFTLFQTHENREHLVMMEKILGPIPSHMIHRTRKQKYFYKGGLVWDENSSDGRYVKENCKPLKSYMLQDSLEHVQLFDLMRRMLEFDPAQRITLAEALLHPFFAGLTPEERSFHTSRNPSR

[17] = target: Dual specificity protein kinase CLK4 (Homo sapiens, UniProt Q9HAZ1); experiment: Inhibition of CLK4 (unknown origin) preincubated with enzyme for 10 mins followed by substrate and ATP addition measured after 60 mins by ADP-Glo reagent based assay
Chain of Dual specificity protein kinase CLK4 (Q9HAZ1 whole entry): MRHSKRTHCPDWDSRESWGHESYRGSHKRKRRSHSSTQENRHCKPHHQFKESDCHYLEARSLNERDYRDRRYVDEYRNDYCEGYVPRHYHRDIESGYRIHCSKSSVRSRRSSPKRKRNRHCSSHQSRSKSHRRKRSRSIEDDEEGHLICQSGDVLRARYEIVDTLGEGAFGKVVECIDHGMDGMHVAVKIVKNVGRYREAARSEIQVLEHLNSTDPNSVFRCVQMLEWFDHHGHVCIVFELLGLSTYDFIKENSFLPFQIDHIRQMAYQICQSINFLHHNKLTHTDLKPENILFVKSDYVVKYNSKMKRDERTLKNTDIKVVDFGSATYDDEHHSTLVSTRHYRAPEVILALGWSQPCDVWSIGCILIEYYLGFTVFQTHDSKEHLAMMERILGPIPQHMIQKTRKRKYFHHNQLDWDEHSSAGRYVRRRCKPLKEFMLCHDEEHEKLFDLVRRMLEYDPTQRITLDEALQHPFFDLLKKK

HEK-293T = experiment: Cytotoxicity against human HEK293T cells expressing human Tau P301L mutant at 0.15625 to 10 uM incubated for 24 hrs by MTT assay; type: toxicity, cell-based; settings: dose 0.15625-10 µM
[18] = Acute toxicity in C57BL/6 mouse assessed as animal death at 500 mg/kg,po observed after 14 days; type: organism-based; settings: in vivo, 336 h, time 14 day
[19] = Acute toxicity in C57BL/6 mouse assessed as change in heart weight at 500 mg/kg,po observed after 14 days; type: organism-based; settings: in vivo, 336 h, time 14 day
[20] = Acute toxicity in C57BL/6 mouse assessed as change in liver weight at 500 mg/kg,po observed after 14 days; type: organism-based; settings: in vivo, 336 h, time 14 day
[21] = Acute toxicity in C57BL/6 mouse assessed as change in lung weight at 500 mg/kg,po observed after 14 days; type: organism-based; settings: in vivo, 336 h, time 14 day
[22] = Acute toxicity in C57BL/6 mouse assessed as histopathological change in liver at 500 mg/kg,po observed after 14 days by hematoxylin-eosin staining based analysis; type: organism-based; settings: in vivo, 336 h, time 14 day
Mus musculus [23] = experiment: Antialzheimer activity in okadaic acid-induced cognitive impairment C57BL/6 mouse assessed as decrease in escape latency at 10 to 30 mg/kg,po once daily for 2 weeks by Morris water maze test; type: functional, organism-based; settings: dose 10-30 mg/kg
Mus musculus [24] = experiment: Antialzheimer activity in okadaic acid-induced cognitive impairment C57BL/6 mouse assessed as increase in cognitive function at 10 to 30 mg/kg,po measured after 7 days by Morris water maze test; type: functional, organism-based; settings: dose 10-30 mg/kg, time 7.0 day
Mus musculus [25] = experiment: Antialzheimer activity in okadaic acid-induced cognitive impairment C57BL/6 mouse assessed as downregulation of Tau phosphorylation at Thr212 residue in hippocampus at 10 to 30 mg/kg,po once daily for 2 weeks by ELISA; type: functional, organism-based; settings: dose 10-30 mg/kg
Mus musculus [26] = experiment: Antialzheimer activity in okadaic acid-induced cognitive impairment C57BL/6 mouse assessed as downregulation of Tau phosphorylation at Thr212 residue in temporal cortex at 10 to 30 mg/kg,po once daily for 2 weeks by ELISA; type: functional, organism-based; settings: dose 10-30 mg/kg
Mus musculus [27] = experiment: Antialzheimer activity in okadaic acid-induced cognitive impairment C57BL/6 mouse assessed as reduction in nerve damage in hippocampal CA1 region at 10 to 30 mg/kg,po once daily for 2 weeks by Nissl staining based microscopy; type: functional, organism-based; settings: dose 10-30 mg/kg
Mus musculus [28] = experiment: Antialzheimer activity in okadaic acid-induced cognitive impairment C57BL/6 mouse assessed as downregulation of Tau phosphorylation at Thr212 residue in hippocampal CA1 region at 10 to 30 mg/kg,po once daily for 2 weeks by immunohistochemical staining analysis; type: functional, organism-based; settings: dose 10-30 mg/kg
[29] = Toxicity in okadaic acid-induced cognitive impairment C57BL/6 mouse assessed as change in body weight at 10 to 30 mg/kg,po once daily for 2 weeks; type: organism-based; settings: in vivo, 336 h, dose 10-30 mg/kg
[30] = Toxicity in okadaic acid-induced cognitive impairment C57BL/6 mouse assessed as change in serum GSH level at 10 to 30 mg/kg,po once daily for 2 weeks; type: organism-based; settings: in vivo, 336 h, dose 10-30 mg/kg
[31] = Toxicity in okadaic acid-induced cognitive impairment C57BL/6 mouse assessed as change in serum BUN level at 10 to 30 mg/kg,po once daily for 2 weeks; type: organism-based; settings: in vivo, 336 h, dose 10-30 mg/kg

## Cc1ccc2c(-c3ccc4ncnc(N[C@H](CO)c5ccccc5)c4c3)c[nH]c2n1
[1]
  half-life at […], 1 µM: 1.53 h
[2]
  half-life at 2 µM: > 3.33 h
[3]
  fraction unbound at 5 h, 1 µM: 0.0033
[4]
  Papp at 16 h, 10 µM: 13.4 ×10⁻⁶ cm/s
CYP2E1
  inhibition at 40 min, 10 µM: 0.07%
CYP3A4
  inhibition at 40 min, 10 µM: 33.1%
[5]
  AUC(0-t) at 24 h: 1500 ng·h/mL
[6]
  AUC(0-t) at 24 h: 2990 ng·h/mL
[7]
  MRT inf: 4.49 h
[8]
  MRT inf: 5.98 h
[9]
  half-life: 2.95 h
[10]
  Cmax: 230 ng/mL
[11]
  Vd: 5.82 L/kg
[12]
  bioavailability: 39.7%
[13]
  IC50: 1.02 nM
[14]
  IC50: 17.5 nM
[15]
  IC50: 401 nM
[16]
  IC50: 38.9 nM
[17]
  IC50: 38.9 nM
HEK-293T
  Activity: Non-Toxic
[18]
  Activity: Non-Toxic
[19]
  Activity: Non-Toxic
[20]
  Activity: Non-Toxic
[21]
  Activity: Non-Toxic
[22]
  Activity: Non-Toxic
Mus musculus [23]
  Activity: Active
Mus musculus [24]
  Activity: Active
Mus musculus [25]
  Activity: Active
Mus musculus [26]
  Activity: Active
Mus musculus [27]
  Activity: Active
Mus musculus [28]
  Activity: Active
[29]
  Activity: Non-Toxic
[30]
  Activity: Non-Toxic
[31]
  Activity: Non-Toxic
